Key:
EpiAirway = assay: Insulin tissue permeation across EpiAirway, ELISA; assay type: in vitro ADME; settings: in vitro study 3; Tween-containing formulations
[1] = Rabbit pharmacokinetics (serum insulin) after IN, SC, IV or oral insulin; assay type: in vivo, ニュージーランド白色ラビット; settings: PK study 2
黄色ブドウ球菌、クロカビ、緑膿菌 = assay: Antimicrobial effectiveness test (AET), USP and EP requirements; settings: for AET result against EP requirements / AET result against USP requirements: insulin nasal spray formulations (placebo or active); for Preservative / antimicrobial effectiveness: in insulin nasal spray formulations, neutral pH
[2] = Compatibility of preservative with insulin (precipitation); assay type: physicochemical; settings: presence in formulation caused insulin precipitation
グルコース = assay: Human PD clinical study, glucose by glucometer; assay type: in vivo, ヒト; settings: intranasal administration

## CCCCCCCCCC(=O)OC[C@H](COP(=O)([O-])OCC[N+](C)(C)C)OC(=O)CCCCCCCCC [DDPC, L−α−ホスファチジルコリンジデカノイル]
EpiAirway
  Effect of removing the excipient from the formulation on insulin permeation: 影響を有しなかった
[1]
  Effect of removing DDPC on BA(%), Cmax and AUClast: 減少した

## O=C([O-])CN(CCN(CC(=O)[O-])CC(=O)O)CC(=O)O.[Na+].[Na+] [EDTA, エデト酸二ナトリウム]
黄色ブドウ球菌、クロカビ、緑膿菌
  AET result against EP requirements: 有効であるとは思われなかった
  AET result against USP requirements: 有効であるとは思われなかった

## CC(C)CC(N)B(O)O (stereo not drawn) [安息香酸ナトリウム]
黄色ブドウ球菌、クロカビ、緑膿菌
  Preservative / antimicrobial effectiveness: 有効な防腐剤ではなかった

## CC(C)CC(N)B(O)O (stereo not drawn) [塩化ベンズアルコニウム]
黄色ブドウ球菌、クロカビ、緑膿菌
  Preservative / antimicrobial effectiveness: 最良の抗菌性能
  AET result against EP requirements: 優れた防腐剤
  AET result against USP requirements: 優れた防腐剤
[2]
  Compatibility with insulin: 不適合性

## CC(C)CC(N)B(O)O (stereo not drawn) [ベンジルアルコール]
黄色ブドウ球菌、クロカビ、緑膿菌
  Preservative / antimicrobial effectiveness: 有効な防腐剤ではなかった and 無効

## Cc1cccc(O)c1 [m−クレゾール]
黄色ブドウ球菌、クロカビ、緑膿菌
  Preservative / antimicrobial effectiveness: 有効な防腐剤ではなかった

## インスリン: recombinant native-sequence human insulin
グルコース
  Reduction of glucose (%) in patients: 有効

Reference: JP2009512709A, “速効型インスリンの経鼻投与” (エムディーアールエヌエー，インコーポレイテッド, priority 2005, dated 2007)
